{"source": "patent US11871713B2", "about": "“Rice cultivar designated ‘PVL02’” (Board of Supervisors of Louisiana State University and …, priority 2019, dated 2024)", "tested_on": "‘PVL02’ rice", "assay": "Herbicide tolerance of rice cultivar 'PVL02'", "format": "in vivo, Oryza sativa", "settings": "rice variety ‘PVL02’ carrying plastidic ACCase I1781(Am)L; rate not given", "description": "‘PVL02’ is an early maturing, long-grain rice variety that is tolerant to ACCase herbicides. For example, ‘PVL02’ is tolerant to Quizalofop-P-ethyl, the generic name for ethyl (R)-2-[4-(6-chloroquinoxalin-2-yl) oxy)phenoxy]propionate, which is sold under the tradename Provisia™ herbicide. PVL02 has excellent milling potential, very low chalk, and a grain length-width ratio of 2.8. ‘PVL02’ was developed using a pedigree selection system at the Louisiana State University Agricultural Center's H. Rouse Caffey Rice Research Station (HRCRRS) in Crowley, Louisiana ‘PVL02’ was selected from the cross Cheniere/BASF 1-5, a cross that was made at the HRCRRS in 2012. ‘Cheniere’ is a commercially-available cultivar. An earlier experimental designation for the ‘PVL02’ line was PVL-108.\nThe ‘PVL02’ line was developed from the bulk of a single F3 line (14P2980) made at the Puerto Rico winter rice nursery in 2014. ‘PVL02’ was evaluated in a Provisia preliminary yield trial at the HRCRRS in 2014 and 2015, under the experimental designation 14PVL108, before being entered into the Louisiana statewide commercial/advanced yield testing program in 2016-2018."}
{"smiles": "CCOC(=O)[C@@H](C)Oc1ccc(Oc2cnc3cc(Cl)ccc3n2)cc1", "note": "[Quizalofop-P-ethyl]", "values": [{"measurement": "tolerance of the rice variety to the herbicide", "value": "tolerant"}]}
